Test [1] addresses T1, human GPR119 (Homo sapiens, UniProt Q8TDV5).
T1 sequence (Q8TDV5 1-335): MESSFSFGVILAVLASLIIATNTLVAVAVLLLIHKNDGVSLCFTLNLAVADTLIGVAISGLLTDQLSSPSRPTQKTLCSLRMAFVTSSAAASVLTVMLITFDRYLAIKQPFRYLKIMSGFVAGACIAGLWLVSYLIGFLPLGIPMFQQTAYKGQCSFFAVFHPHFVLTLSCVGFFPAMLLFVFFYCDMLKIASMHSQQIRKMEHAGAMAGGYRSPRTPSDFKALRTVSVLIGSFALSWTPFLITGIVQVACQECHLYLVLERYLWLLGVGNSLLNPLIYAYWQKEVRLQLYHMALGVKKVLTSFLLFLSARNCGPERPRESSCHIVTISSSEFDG
As to the kind of experiment: cAMP HTRF functional assay (hGPR119 HEK-CRE beta-lactamase cells). In kind it is cell-based. More on the design: host or cells: HEK293-CRE beta-lactamase. The note with it: for EC50: HTRF cAMP, 30 min, 400 microM IBMX, each line a separate determination; for Emax / Intrinsic Activity (Human cAMP): percent of maximal activity relative to standard GPR119 agonist at 10 micromolar; for Emax: read-out: Intrinsic Activity (Human cAMP). A digest of the protocol: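 hGPR119 HEK-CRE cells (5000/well), cultured overnight, then treated 30 min at room temperature with compound plus 400 microM IBMX (0.58% DMSO). cAMP measured by competitive HTRF immunoassay after 60 min lysis/detection, converted to nM via standard curve; EC50 from 4-parameter logistic fit.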

Test [2] has as its target T1, human GPR119. As to the kind of experiment: β-Arrestin PathHunter assay (U2OS hGPR119 β-arrestin cells). The test is classed as cell-based. The settings on record: for EC50: U2OS hGPR119 β-arrestin cells, 90 min, each line a separate determination, read-out: Human B-arrestin Functional EC50; for Emax: U2OS, read-out: Intrinsic Activity (Human B-arrestin); for Emax / Intrinsic Activity (Human B-arrestin): percent of maximal activity relative to standard GPR119 agonist at 10 micromolar. The procedure:
GPR119 agonist activity was also determined with a cell-based assay utilizing DiscoverX PathHunter β-arrestin cell assay technology and their U2OS hGPR119 β-arrestin cell line (DiscoverX Cat # 93-0356C3). In this assay, agonist activation is determined by measuring agonist-induced interaction of β-arrestin with activated GPR119. A small, 42 amino acid enzyme fragment, called ProLink was appended to the C-terminus of GPR119. Arrestin was fused to the larger enzyme fragment, termed EA (Enzyme Acceptor). Activation of GPR119 stimulates binding of arrestin and forces the complementation of the two enzyme fragments, resulting in formation of a functional β-galactosidase enzyme capable of hydrolyzing substrate and generating a chemiluminescent signal.
Specifically, U2OS hGPR119 β-arrestin cells (DiscoverX 1×10^7/mL) are removed from cryopreservation and diluted in growth medium (Minimum essential medium (MEM; Gibco Cat # 11095-080), 10% heat inactivated fetal bovine serum (HIFBS; Sigma Cat # F4135-100), […] sodium pyruvate (Sigma Cat # S8636), 500 microg/mL G418 (Sigma Cat # G8168) and 250 microg/mL Hygromycin B (Invitrogen Cat # 10687-010). The cell concentration was adjusted to 1.66×10^5 cells/mL and 30 mLs of this suspension was added to a T-175 flask and incubated at 37 degrees Celsius in a humidified environment in 5% carbon dioxide. After 24 hours, the cells were removed from the T-175 flask with enzyme-free cell dissociation buffer (Gibco cat #13151-014), centrifuged at 800×g and then re-suspended in plating medium (Opti-MEM I (Invitrogen/BRL Cat # 31985-070) and 2% charcoal dextran treated fetal bovine serum (CD serum; HyClone Cat # SH30068.03).
The cell concentration was adjusted to 2.5×10^5 cells/mL with plating medium and 20 microliters of this cell suspension (5000 cells) was added to each well of a white Greiner 384-well low volume assay plate (VWR cat #82051-458) and the plates were incubated at 37 degrees Celsius in a humidified environment in 5% carbon dioxide.
After 16 hours (overnight) the assay plates were removed from the incubator and varying concentrations of each compound to be tested (diluted in assay buffer (1×HBSS+CaCl2+MgCl2 (Gibco Cat # 14025-092), 20 mM HEPES pH 7.0 (Gibco Cat # 15630-080) and 0.1% BSA (Sigma Cat # A9576)) were added to the assay plate wells in a volume of 5 microliters (final DMSO concentration was 0.5%). After a 90 minute incubation at 37 degrees Celsius in a humidified environment in 5% carbon dioxide, 12 microliters of Galacton Star β-galactosidase substrate (PathHunter Detection Kit (DiscoveRx Cat # 93-0001); prepared as described in the manufacturers assay protocol) was added to each well of the assay plate. The plates were incubated at room temperature and after 60 minutes, changes in the luminescence were read with an Envision 2104 multilabel plate reader at 0.1 seconds per well. EC50 determinations were made from an agonist-response curves analyzed with a curve fitting program using a 4-parameter logistic dose response equation.

“And” between values parts separate entries of the source, which are not always exact repeats. Equal entries are not always repeated.

The term EC50 denotes the concentration giving half of the maximal effect.

Turning to `Cc1c(OC2CCN(C(=O)OC(C)C)CC2)ncnc1N1CCc2cc(S(C)(=O)=O)ccc21` [Example 8, Isopropyl 4-({5-methyl-6-[5-(methylsulfonyl)-2,3-dihydro-1H-indol-1-yl]pyrimidin-4-yl}oxy)piperidine-1-carboxylate], on human GPR119 [1], the EC50 was determined as 43.9 nM and the Emax turned out to be 53%.

Take `CCC1(OC(=O)N2C[C@H]3COC[C@@H](C2)[C@H]3Oc2ncnc(N3CCc4ncccc43)c2C)CC1` [Example 26, 1-Ethylcyclopropyl (9-anti)-9-{[6-(2,3-dihydro-1H-pyrrolo-[3,2-b]pyridin-1-yl)-5-methylpyrimidin-4-yl]oxy}-3-oxa-7-azabicyclo[3.3.1]nonane-7-carboxylate]: on human GPR119 [2], the EC50 was 23.8 nM and 18.2 nM and 21.3 nM and 26.3 nM; the Emax was 68.6%; the “Intrinsic Activity (Human B-arrestin)” value is 82.5% and 68.9% and 73.4%. Besides, at human GPR119 [1], the EC50 is 96.9 nM and 112 nM and 91.1 nM and 163 nM; the “Intrinsic Activity (Human cAMP)” value is 65.1% and 67.6% and 43.6% and 50%.

Take `CC(C)OC(=O)N1CCC(Oc2cc(N3CCc4cc(C(=O)N(C)C)ccc43)ncn2)CC1` [Example 9, 4-[6-(5-Dimethylcarbamoyl-2,3-dihydroindol-1-yl)-pyrimidin-4-yloxy]-piperidine-1-carboxylic acid isopropyl ester]: on human GPR119 [1], the EC50 worked out at 70.9 nM and the Emax came to 97.5%.

With `CC(C)OC(=O)N1C[C@H]2COC[C@@H](C1)[C@H]2Oc1cc(N2CCc3cc(S(C)(=O)=O)ccc32)ncn1` [Example 1, Isopropyl 9-anti-({6-[5-(methylsulfonyl)-2,3-dihydro-1H-indol-1-yl]pyrimidin-4-yl}oxy)-3-oxa-7-azabicyclo[3.3.1]nonane-7-carboxylate], on human GPR119 [1], the EC50 is 339 nM and 567 nM and 1280 nM; the “Intrinsic Activity (Human cAMP)” value was 94% and 87.9%; the Emax worked out at 96.5%.

On to `Cc1c(O[C@H]2[C@@H]3COC[C@H]2CN(C(=O)OC2(C)CCC2)C3)ncnc1N1CCc2ncccc21` [Example 27, 1-Methylcyclobutyl (9-anti)-9-{[6-(2,3-dihydro-1H-pyrrolo[3,2-b]pyridin-1-yl)-5-methylpyrimidin-4-yl]oxy}-3-oxa-7-azabicyclo[3.3.1]nonane-7-carboxylate], for which, on human GPR119 [2], the EC50 was 4.02 nM and 22.9 nM and 5.81 nM and 11 nM; the Emax was found to be 63.5%; the “Intrinsic Activity (Human B-arrestin)” value is 64.2% and 58.1% and 51.4%. Moreover, at human GPR119 [1], the EC50 is 74.5 nM and 68.9 nM and 42.7 nM and 69.8 nM; the “Intrinsic Activity (Human cAMP)” value was 43.5% and 30.6% and 28.4%; the Emax amounted to 39.1%.

For `CC(C)(C)OC(=O)N1CCC(Oc2cc(N3CCc4cc(S(C)(=O)=O)ccc43)ncn2)C(F)C1` (racemic) [Example 15, tert-Butyl 3-fluoro-4-({6-[5-(methylsulfonyl)-2,3-dihydro-1H-indol-1-yl]pyrimidin-4-yl}oxy)piperidine-1-carboxylate], at human GPR119 [2], the EC50 came to 0.999 nM and the Emax was determined as 77.1%. On human GPR119 [1], the EC50 was 10.3 nM and 12.9 nM and 49.5 nM; the “Intrinsic Activity (Human cAMP)” value is 102% and 93.5%; the Emax amounted to 92.5%.

Turning to `Cc1c(O[C@H]2[C@@H]3COC[C@H]2CN(C(=O)OC2(C)CC2)C3)ncnc1N1CCc2ncccc21` [Example 25, 1-Methylcyclopropyl (9-anti)-9-{[6-(2,3-dihydro-1H-pyrrolo[3,2-b]pyridin-1-yl)-5-methylpyrimidin-4-yl]oxy}-3-oxa-7-azabicyclo[3.3.1]nonane-7-carboxylate], at human GPR119 [2], the EC50 is 14.7 nM and 12.4 nM and 19.3 nM and 40.7 nM and 18.2 nM; the “Intrinsic Activity (Human B-arrestin)” value is 58.7% and 81% and 78.6% and 68.6% and 74.5%. Also, the “Intrinsic Activity (Human cAMP)” value on human GPR119 [1] is 52.9% and 68.3% and 67.7% and 74.3% and 62.9%.

As for `CC(C)OC(=O)N1CCC(Oc2ncnc(N3CCc4cc(S(C)(=O)=O)ccc43)c2C#N)CC1` [Example 6, Isopropyl 4-({5-cyano-6-[5-(methylsulfonyl)-2,3-dihydro-1H-indol-1-yl]pyrimidin-4-yl}oxy)piperidine-1-carboxylate], at human GPR119 [2], the EC50 turned out to be 4.76 nM and the Emax worked out at 70%. For the same compound, on human GPR119 [1], the EC50 is 84.5 nM and 116 nM; the “Intrinsic Activity (Human cAMP)” value is 94.2%; the Emax was 95.3%.

As to `Cc1c(O[C@H]2[C@@H]3COC[C@H]2CN(C(=O)OC(C)C)C3)ncnc1N1CCc2ncccc21` [Example 22, Isopropyl (9-anti)-9-{[6-(2,3-dihydro-1H-pyrrolo[3,2-b]pyridin-1-yl)-5-methylpyrimidin-4-yl]oxy}-3-oxa-7-azabicyclo[3.3.1]nonane-7-carboxylate], at human GPR119 [2], the EC50 is 40.2 nM and 33.1 nM and 74.6 nM and 41.8 nM; the Emax came out at 68.8%; the “Intrinsic Activity (Human B-arrestin)” value is 70.5% and 71.2% and 60.3%. At human GPR119 [1], the EC50 was 116 nM and 169 nM and 137 nM and 269 nM; the “Intrinsic Activity (Human cAMP)” value is 80.4% and 66.6% and 74.1% and 55.6%.

As to `Cc1c(O[C@@H]2[C@@H]3COC[C@H]2CN(C(=O)OC(C)C)C3)ncnc1N1CCc2cc(S(C)(=O)=O)ccc21` [Example 23, Isopropyl (9-syn)-9-({5-methyl-6-[5-(methylsulfonyl)-2,3-dihydro-1H-indol-1-yl]pyrimidin-4-yl}oxy)-3-oxa-7-azabicyclo[3.3.1]nonane-7-carboxylate], the Emax at human GPR119 [2] is 51.6%; on human GPR119 [1], 26.3%. For the same compound, the “Intrinsic Activity (Human cAMP)” value on human GPR119 [1] is 27.9% and 29.5% and 16.7%.

`Cc1c(OC2CCN(C(=O)OC(C)C)CC2)ncnc1N1CCc2ncccc21` [Example 13, Isopropyl 4-{[6-(2,3-dihydro-1H-pyrrolo[3,2-b]pyridin-1-yl)-5-methylpyrimidin-4-yl]oxy}-piperidine-1-carboxylate]: at human GPR119 [2], the EC50 was found to be 89.4 nM and the Emax amounted to 29.1%. Besides, at human GPR119 [1], the EC50 is 24.1 nM and 39.7 nM and 76.3 nM and 30.2 nM; the “Intrinsic Activity (Human cAMP)” value is 19.5% and 29.2% and 24.4%; the Emax was found to be 20.3%.

Regarding `CC(C)OC(=O)N1CCC(Oc2cc(N3CCc4cc(C#N)ccc43)ncn2)CC1` [Example 10, Isopropyl 4-{[6-(5-cyano-2,3-dihydro-1H-indol-1-yl)pyrimidin-4-yl]oxy}piperidine-1-carboxylate], on human GPR119 [1], the concentration for a half-maximal effect (EC50) is 13.8 nM and 32.9 nM; the “Intrinsic Activity (Human cAMP)” value is 105%; the Emax worked out at 104%.

Turning to `CC(C)OC(=O)N1CCC(Oc2cc(N3CCc4cc(S(C)(=O)=O)ccc43)ncn2)CC1` [Example 3, Isopropyl 4-({6-[5-(methylsulfonyl)-2,3-dihydro-1H-indol-1-yl]pyrimidin-4-yl}oxy)piperidine-1-carboxylate], on human GPR119 [2], the concentration for a half-maximal effect (EC50) is 22.1 nM and 14.9 nM and 72.2 nM; the “Intrinsic Activity (Human B-arrestin)” value was 75.8% and 62.2% and 87.9%. Also, at human GPR119 [1], the EC50 was 28.8 nM and 126 nM and 225 nM and 199 nM and 49.4 nM and 152 nM and 63.7 nM and 202 nM and 201 nM and 104 nM; the “Intrinsic Activity (Human cAMP)” value came to 107%.

For `CC(C)OC(=O)N1CCC(Oc2cc(N3CCc4cc(S(=O)(=O)CCO)ccc43)ncn2)CC1` [Example 11, Isopropyl 4-[(6-{5-[(2-hydroxyethyl)sulfonyl]-2,3-dihydro-1H-indol-1-yl}pyrimidin-4-yl)oxy]piperidine-1-carboxylate], at human GPR119 [1], a half-maximal response (EC50) required 99.4 nM and the Emax came out at 90.3%.
